Test results published in paper PMC11881559 (Antimicrobial Agents and Chemotherapy, 2025).
Values joined by “and” are separate entries in the source; they are usually repeats but may differ in a detail not shown here. Equal entries are not always repeated.

Tests used:
[1] = Multiple ascending dose (MAD) study, plasma PK; conditions: for t1/2: mean ± SD
[2] = Exposure-response analysis of adverse events (logistic regression); design: species or system human
Source text: For safety analysis, we also employed an exposure-response analysis method that included four binary outcomes: any adverse drug reaction (ADR), hypertriglyceridemia, hyperuricemia, and elevated creatinine levels. The exposure levels were derived by simulating individual parameter estimates from a population PK model ([23]), which generated dense sampling drug concentration-time curves. The noncompartmental analysis was subsequently performed using the PKNCA package in R software ver. 4.3 to calculate the area under the concentration-time curve over 24 h (AUC0-24) using the trapezoidal method and the maximum blood drug concentration within 24 h (Cmax).
logit(P(Yi=1))=β0+β1⋅log(Xi)
In this context, Xi represents the exposure (AUC0-24 and Cmax) of the ith subject, β0 denotes the intercept, and β1 indicates the coefficient for exposure. P(Yi = 1) represents the probability of AE occurrence, with logit referring to the logistic transformation.

[3] = Preclinical toxicology, NOAEL in dogs; format: in vivo; conditions: from dog NOAEL, at 60 kg body weight

**Q.** For `O=C(NC1CCCC1)C(=O)[C@H](C[C@@H]1CCNC1=O)NC(=O)[C@@H]1[C@H]2CCC[C@H]2CN1C(=O)[C@@H](NC(=O)C(F)(F)F)C1CCCCC1` [RAY1216, leritrelvir], which “plasma concentration reached a steady state by” value ([1]; 400 mg TID) is on record?
**A.** ≤ 2 days

**Q.** What about the AUC0-t ([1]; 400 mg TID, Day 1, mean (%CV)) of the same compound?
**A.** 9,720 (36) ng·h/mL

**Q.** And the AUC0-tau ([1]; 400 mg TID, Day 1, mean (%CV))?
**A.** 10,600 (30.4) ng·h/mL

**Q.** And the “AUC0-∞” value ([1]; 400 mg TID, Day 1, mean (%CV))?
**A.** 13,300 (32) ng·h/mL

**Q.** And the Cmax ([1]; 400 mg TID, Day 1, mean (%CV))?
**A.** 3,450 (37.2) ng/mL

**Q.** What about the “MRT0-∞” value ([1]; 400 mg TID, Day 1, mean (%CV)) of the same compound?
**A.** 3.93 (16.5) h

**Q.** And the t1/2 ([1]; 400 mg TID, Day 1)?
**A.** 2.31 ± 0.465 h

**Q.** What about the Tmax ([1]; 400 mg TID, Day 1, median (range)) of the same compound?
**A.** 1.5 (1.0, 2.0) h

**Q.** And the AUC0-t ([1]; 400 mg TID, Day 5, mean (%CV))?
**A.** 15,400 (32.5) ng·h/mL

**Q.** And the AUC0-tau ([1]; 400 mg TID, Day 5, mean (%CV))?
**A.** 10,000 (36) ng·h/mL

**Q.** What about the “AUC0-∞” value ([1]; 400 mg TID, Day 5, mean (%CV)) of the same compound?
**A.** 15,500 (32.2) ng·h/mL

**Q.** And the Cmax ([1]; 400 mg TID, Day 5, mean (%CV))?
**A.** 2,700 (32.3) ng/mL

**Q.** What about the “Cmin,ss” value ([1]; 400 mg TID, Day 5, mean (%CV)) of the same compound?
**A.** 382 ng/mL and 382 (44.9) ng/mL

**Q.** And the “MRT0-∞” value ([1]; 400 mg TID, Day 5, mean (%CV))?
**A.** 6.23 (18.9) h

**Q.** What about the t1/2 ([1]; 400 mg TID, Day 5) of the same compound?
**A.** 9.61 ± 2.26 h

**Q.** What about the Tmax ([1]; 400 mg TID, Day 5, median (range)) of the same compound?
**A.** 1.5 (1.0, 3.0) h

**Q.** What about the Tmax ([1]; 400 mg TID, continuous administration) of the same compound?
**A.** 1.5 h

**Q.** What about the “plasma concentrations reached a steady state by” value ([1]; 300, 500 or 700 mg with 100 mg ritonavir BID) of the same compound?
**A.** ≤ 2 days

**Q.** And the “exposure-response relationship of ADRs, hypertriglyceridemia, hyperuricemia, elevated creatinine with exposure (AUC0-24, Cmax)” value [2]?
**A.** no significant dose-response relationship

**Q.** What about the human equivalent dose [3] of the same compound?
**A.** ~21,000 mg/day
